Test results reported in ChEMBL document CHEMBL4251622, “Design, synthesis, and biological evaluation of polo-like kinase 1/eukaryotic elongation factor 2 kinase (PLK1/EEF2K) dual inhibitors for regulating breast cancer cells apoptosis and autophagy” (Eur J Med Chem, 2018).
Active and inactive are the calls of the source. The calls are words filed in the database; no cut-off is given here.

Tests used:
[1] = molecular target: Ephrin type-A receptor 2 (Homo sapiens) (UniProt P29317); assay: Inhibition of wild-type human partial length EPHA2 (T593 to V891 residues) expressed in bacterial expression system assessed as residual activity at 1 uM by Kinomescan method relative to control
BT-483 [2] = assay: Cytotoxicity against human BT-483 cells after 24 hrs by MTT assay; format: functional, cell-based; settings: BT-483, 24 h
[3] = molecular target: Cyclin-dependent kinase 16 (Homo sapiens) (UniProt Q00536); assay: Inhibition of wild-type human partial length PCTK1 (G160 to A474 residues) expressed in mammalian expression system assessed as residual activity at 1 uM by Kinomescan method relative to control
Sequence of Cyclin-dependent kinase 16 (Homo sapiens) (Q00536 whole entry, the tested form may be a part): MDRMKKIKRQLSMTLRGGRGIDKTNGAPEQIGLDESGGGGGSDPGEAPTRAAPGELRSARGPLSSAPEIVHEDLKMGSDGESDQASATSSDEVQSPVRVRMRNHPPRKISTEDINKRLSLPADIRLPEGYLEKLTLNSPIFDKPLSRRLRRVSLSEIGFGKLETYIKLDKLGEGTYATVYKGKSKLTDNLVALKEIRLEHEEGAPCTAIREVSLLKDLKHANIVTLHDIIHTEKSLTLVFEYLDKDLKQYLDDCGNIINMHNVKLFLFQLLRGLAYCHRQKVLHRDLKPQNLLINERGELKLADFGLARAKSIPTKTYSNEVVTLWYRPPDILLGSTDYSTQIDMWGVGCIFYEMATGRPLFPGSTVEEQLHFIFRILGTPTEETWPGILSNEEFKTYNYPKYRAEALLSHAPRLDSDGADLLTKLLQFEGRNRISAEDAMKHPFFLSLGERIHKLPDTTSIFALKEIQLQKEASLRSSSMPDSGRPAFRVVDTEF

[4] = molecular target: Receptor-interacting serine/threonine-protein kinase 1 (Homo sapiens) (UniProt Q13546); assay: Inhibition of wild-type human partial length RIPK1 (M1 to K305 residues) expressed in bacterial expression system assessed as residual activity at 1 uM by Kinomescan method relative to control
Sequence of Receptor-interacting serine/threonine-protein kinase 1 (Homo sapiens) (Q13546 whole entry, the tested form may be a part): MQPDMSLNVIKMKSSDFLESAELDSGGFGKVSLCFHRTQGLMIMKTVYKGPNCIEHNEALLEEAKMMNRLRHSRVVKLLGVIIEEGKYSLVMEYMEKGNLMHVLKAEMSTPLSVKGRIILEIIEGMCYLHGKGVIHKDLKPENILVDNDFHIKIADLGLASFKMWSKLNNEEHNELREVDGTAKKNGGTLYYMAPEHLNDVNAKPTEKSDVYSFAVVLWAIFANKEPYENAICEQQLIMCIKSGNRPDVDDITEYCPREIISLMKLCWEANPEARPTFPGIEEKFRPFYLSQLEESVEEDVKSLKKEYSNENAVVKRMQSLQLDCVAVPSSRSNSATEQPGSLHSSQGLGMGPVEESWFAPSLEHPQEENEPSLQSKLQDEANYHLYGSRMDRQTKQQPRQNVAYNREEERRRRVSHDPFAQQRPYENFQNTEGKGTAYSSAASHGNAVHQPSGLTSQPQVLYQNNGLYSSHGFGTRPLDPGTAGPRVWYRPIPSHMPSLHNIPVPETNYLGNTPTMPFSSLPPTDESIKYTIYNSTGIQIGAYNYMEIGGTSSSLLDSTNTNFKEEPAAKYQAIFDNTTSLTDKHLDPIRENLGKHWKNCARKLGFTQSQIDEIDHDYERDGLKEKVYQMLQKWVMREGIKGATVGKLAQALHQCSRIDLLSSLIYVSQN

[5] = molecular target: Mitogen-activated protein kinase 9 (Homo sapiens) (UniProt P45984); assay: Inhibition of wild-type human full length JNK2 (M1 to Q382 residues) expressed in mammalian expression system assessed as residual activity at 1 uM by Kinomescan method relative to control
[6] = test system: Tyrosine-protein kinase ABL1 (Homo sapiens), P00519 [T315I]; assay: Inhibition of human phosphorylated ABL1 T315I mutant (S229 to K512 residues) expressed in mammalian expression system assessed as residual activity at 1 uM by Kinomescan method relative to control
[7] = molecular target: Aurora kinase B (Homo sapiens) (UniProt Q96GD4); assay: Inhibition of wild-type human partial length AURKB (D25 to A303 residues) expressed in mammalian expression system assessed as residual activity at 1 uM by Kinomescan method relative to control
[8] = molecular target: Serine/threonine-protein kinase Chk1 (Homo sapiens) (UniProt O14757); assay: Inhibition of wild-type human partial length CHEK1 (M1 to G289 residues) expressed in bacterial expression system assessed as residual activity at 1 uM by Kinomescan method relative to control
[9] = molecular target: Tyrosine-protein kinase BTK (Homo sapiens) (UniProt Q06187); assay: Inhibition of wild-type human full length BTK (M1 to S659 residues) expressed in mammalian expression system assessed as residual activity at 1 uM by Kinomescan method relative to control
[10] = molecular target: Proto-oncogene tyrosine-protein kinase receptor Ret (Homo sapiens) (UniProt P07949); assay: Inhibition of wild-type human partial length RET (E713 to D1014 residues) expressed in bacterial expression system assessed as residual activity at 1 uM by Kinomescan method relative to control
Sequence of Proto-oncogene tyrosine-protein kinase receptor Ret (Homo sapiens) (P07949 whole entry, the tested form may be a part): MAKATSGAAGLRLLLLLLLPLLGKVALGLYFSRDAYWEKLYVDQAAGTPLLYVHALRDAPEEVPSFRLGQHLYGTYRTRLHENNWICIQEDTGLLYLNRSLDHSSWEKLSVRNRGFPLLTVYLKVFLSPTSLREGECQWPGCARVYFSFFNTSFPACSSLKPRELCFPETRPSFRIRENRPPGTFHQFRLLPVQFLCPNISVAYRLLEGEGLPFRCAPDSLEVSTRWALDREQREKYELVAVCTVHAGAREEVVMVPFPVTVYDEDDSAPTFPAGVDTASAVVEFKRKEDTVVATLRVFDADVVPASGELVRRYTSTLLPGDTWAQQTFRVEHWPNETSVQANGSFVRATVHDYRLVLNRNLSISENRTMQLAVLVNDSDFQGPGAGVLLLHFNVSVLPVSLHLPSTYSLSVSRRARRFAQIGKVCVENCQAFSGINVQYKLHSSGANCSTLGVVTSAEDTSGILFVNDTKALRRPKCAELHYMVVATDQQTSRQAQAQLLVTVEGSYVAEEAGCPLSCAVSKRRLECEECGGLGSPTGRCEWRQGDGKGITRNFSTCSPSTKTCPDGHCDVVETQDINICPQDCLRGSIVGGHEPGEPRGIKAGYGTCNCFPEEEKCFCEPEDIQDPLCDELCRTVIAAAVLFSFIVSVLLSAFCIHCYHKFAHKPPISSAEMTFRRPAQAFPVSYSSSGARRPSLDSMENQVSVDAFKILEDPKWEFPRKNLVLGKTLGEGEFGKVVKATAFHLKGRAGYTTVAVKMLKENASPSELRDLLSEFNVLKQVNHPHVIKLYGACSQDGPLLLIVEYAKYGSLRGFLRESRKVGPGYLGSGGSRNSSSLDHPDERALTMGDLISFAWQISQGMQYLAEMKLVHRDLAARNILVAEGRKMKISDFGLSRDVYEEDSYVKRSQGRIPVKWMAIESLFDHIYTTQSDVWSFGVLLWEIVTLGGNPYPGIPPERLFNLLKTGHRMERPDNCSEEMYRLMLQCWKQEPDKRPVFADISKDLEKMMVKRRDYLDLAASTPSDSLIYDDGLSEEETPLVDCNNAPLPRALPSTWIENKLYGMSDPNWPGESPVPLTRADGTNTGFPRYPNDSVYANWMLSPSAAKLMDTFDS

BT-483 [11] = assay: Induction of apoptosis in human BT-483 cells assessed as live cells at 10 uM by Annexin V-FITC/propidium iodide staining based flow cytometry (reference value: 87.5%); format: functional
[12] = molecular target: Activin receptor type-1B (Homo sapiens) (UniProt P36896); assay: Inhibition of wild-type human ACVR1B (S187 to I505 residues) expressed in bacterial expression system assessed as residual activity at 1 uM by Kinomescan method relative to control
Sequence of Activin receptor type-1B (Homo sapiens) (P36896 whole entry, the tested form may be a part, canonical isoform): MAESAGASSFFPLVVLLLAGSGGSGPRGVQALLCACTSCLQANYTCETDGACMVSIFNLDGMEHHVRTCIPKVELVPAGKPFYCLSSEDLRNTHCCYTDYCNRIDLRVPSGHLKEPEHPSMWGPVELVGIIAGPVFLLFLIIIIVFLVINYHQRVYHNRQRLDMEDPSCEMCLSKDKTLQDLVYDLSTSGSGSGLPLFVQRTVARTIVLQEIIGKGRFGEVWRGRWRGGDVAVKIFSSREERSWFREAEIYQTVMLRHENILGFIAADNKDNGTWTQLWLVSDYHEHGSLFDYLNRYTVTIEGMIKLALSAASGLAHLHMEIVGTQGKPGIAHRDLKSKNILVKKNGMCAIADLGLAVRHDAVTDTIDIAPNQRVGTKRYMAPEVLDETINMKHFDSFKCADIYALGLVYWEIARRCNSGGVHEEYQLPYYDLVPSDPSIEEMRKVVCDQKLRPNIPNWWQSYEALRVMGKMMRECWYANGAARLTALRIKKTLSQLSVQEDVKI

[13] = molecular target: Phosphatidylinositol 4,5-bisphosphate 3-kinase catalytic subunit alpha isoform (Homo sapiens) (UniProt P42336); assay: Inhibition of wild-type human partial length PIK3CA (R108 to N1068 residues) expressed in mammalian expression system assessed as residual activity at 1 uM by Kinomescan method relative to control
Sequence of Phosphatidylinositol 4,5-bisphosphate 3-kinase catalytic subunit alpha isoform (Homo sapiens) (P42336 whole entry, the tested form may be a part, canonical isoform): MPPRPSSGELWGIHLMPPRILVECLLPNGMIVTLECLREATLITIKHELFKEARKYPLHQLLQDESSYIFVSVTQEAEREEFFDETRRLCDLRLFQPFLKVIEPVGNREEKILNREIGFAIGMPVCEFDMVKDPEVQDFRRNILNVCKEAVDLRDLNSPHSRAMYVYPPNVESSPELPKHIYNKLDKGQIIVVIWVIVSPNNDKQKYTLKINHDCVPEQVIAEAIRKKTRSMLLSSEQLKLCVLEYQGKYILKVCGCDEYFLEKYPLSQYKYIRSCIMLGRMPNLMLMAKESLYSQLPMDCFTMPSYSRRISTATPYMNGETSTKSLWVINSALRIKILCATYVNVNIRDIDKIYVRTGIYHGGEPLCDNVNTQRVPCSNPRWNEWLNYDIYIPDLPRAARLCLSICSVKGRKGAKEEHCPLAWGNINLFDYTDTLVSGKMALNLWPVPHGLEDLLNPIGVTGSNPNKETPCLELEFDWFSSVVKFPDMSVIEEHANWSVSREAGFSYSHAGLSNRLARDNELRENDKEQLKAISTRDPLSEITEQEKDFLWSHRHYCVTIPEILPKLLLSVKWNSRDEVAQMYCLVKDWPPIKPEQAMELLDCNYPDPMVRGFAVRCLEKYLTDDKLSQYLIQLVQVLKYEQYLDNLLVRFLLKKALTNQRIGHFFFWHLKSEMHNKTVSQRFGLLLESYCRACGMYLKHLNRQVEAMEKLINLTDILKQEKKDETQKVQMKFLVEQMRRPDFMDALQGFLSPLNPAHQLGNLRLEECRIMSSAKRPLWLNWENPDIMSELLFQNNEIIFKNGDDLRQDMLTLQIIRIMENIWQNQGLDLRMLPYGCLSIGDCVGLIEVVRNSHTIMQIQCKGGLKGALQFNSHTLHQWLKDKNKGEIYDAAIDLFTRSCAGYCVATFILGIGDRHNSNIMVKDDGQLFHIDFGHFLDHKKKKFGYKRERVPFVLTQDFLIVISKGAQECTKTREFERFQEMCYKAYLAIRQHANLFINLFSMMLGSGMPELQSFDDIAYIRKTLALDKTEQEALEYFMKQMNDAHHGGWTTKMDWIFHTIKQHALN

BT-483 [14] = assay: Induction of apoptosis in human BT-483 cells assessed as apoptotic nuclear fragment formation at 5 uM after 24 hrs by fluorescence microscopic method; format: functional, cell-based
BT-483 [15] = assay: Cell cycle arrest in human BT-483 cells assessed as accumulation at G2/M phase at 5 to 10 uM after 24 to 72 hrs; format: functional, cell-based
[16] = molecular target: Cyclin-dependent kinase 3 (Homo sapiens) (UniProt Q00526); assay: Inhibition of wild-type human full length CDK3 (M1 to H305 residues) expressed in bacterial expression system assessed as residual activity at 1 uM by Kinomescan method relative to control
[17] = molecular target: Mast/stem cell growth factor receptor Kit (Homo sapiens) (UniProt P10721); assay: Inhibition of wild-type human partial length KIT (I571 to D952 residues) expressed in bacterial expression system assessed as residual activity at 1 uM by Kinomescan method relative to control
[18] = molecular target: Insulin-like growth factor 1 receptor (Homo sapiens) (UniProt P08069); assay: Inhibition of wild-type human partial length IGF1R (L972 to D1294 residues) expressed in bacterial expression system assessed as residual activity at 1 uM by Kinomescan method relative to control
[19] = molecular target: Proto-oncogene tyrosine-protein kinase Src (Homo sapiens) (UniProt P12931); assay: Inhibition of wild-type human partial length SRC (L240 to L536 residues) expressed in bacterial expression system assessed as residual activity at 1 uM by Kinomescan method relative to control
BT-483 [20] = assay: Effect on total PLK1 protein expression in human BT-483 cells at 5 to 10 uM by Western blot analysis; format: ADME, cell-based; settings: bt-483, 10 µM
[21] = molecular target: Ribosomal protein S6 kinase alpha-1 (Homo sapiens) (UniProt Q15418); assay: Inhibition of wild-type human partial length N-terminal RSK1 Kinase domain 1 (M1 to E388 residues) expressed in bacterial expression system assessed as residual activity at 1 uM by Kinomescan method relative to control
Sequence of Ribosomal protein S6 kinase alpha-1 (Homo sapiens) (Q15418 whole entry, the tested form may be a part): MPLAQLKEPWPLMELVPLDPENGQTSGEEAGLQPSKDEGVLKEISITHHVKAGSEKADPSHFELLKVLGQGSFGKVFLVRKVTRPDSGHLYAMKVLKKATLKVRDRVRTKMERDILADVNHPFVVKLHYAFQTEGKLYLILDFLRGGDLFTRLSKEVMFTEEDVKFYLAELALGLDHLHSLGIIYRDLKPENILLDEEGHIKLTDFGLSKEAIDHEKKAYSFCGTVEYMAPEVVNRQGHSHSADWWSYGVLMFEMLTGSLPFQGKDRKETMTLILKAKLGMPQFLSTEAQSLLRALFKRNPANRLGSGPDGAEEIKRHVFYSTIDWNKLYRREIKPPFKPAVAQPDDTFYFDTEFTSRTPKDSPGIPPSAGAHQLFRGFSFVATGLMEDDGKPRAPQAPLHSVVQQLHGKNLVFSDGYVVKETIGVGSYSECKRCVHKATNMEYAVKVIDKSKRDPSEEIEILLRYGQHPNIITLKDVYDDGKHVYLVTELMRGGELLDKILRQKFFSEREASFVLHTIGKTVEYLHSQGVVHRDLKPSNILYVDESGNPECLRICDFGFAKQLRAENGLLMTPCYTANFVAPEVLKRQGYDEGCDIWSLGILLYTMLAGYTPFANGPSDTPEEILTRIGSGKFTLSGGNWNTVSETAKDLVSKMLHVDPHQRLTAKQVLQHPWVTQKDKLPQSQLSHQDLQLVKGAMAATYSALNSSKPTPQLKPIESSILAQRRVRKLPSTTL

[22] = molecular target: Mitogen-activated protein kinase 11 (Homo sapiens) (UniProt Q15759); assay: Inhibition of wild-type human full length p38-beta (M1 to Q364 residues) expressed in bacterial expression system assessed as residual activity at 1 uM by Kinomescan method relative to control
Sequence of Mitogen-activated protein kinase 11 (Homo sapiens) (Q15759 whole entry, the tested form may be a part): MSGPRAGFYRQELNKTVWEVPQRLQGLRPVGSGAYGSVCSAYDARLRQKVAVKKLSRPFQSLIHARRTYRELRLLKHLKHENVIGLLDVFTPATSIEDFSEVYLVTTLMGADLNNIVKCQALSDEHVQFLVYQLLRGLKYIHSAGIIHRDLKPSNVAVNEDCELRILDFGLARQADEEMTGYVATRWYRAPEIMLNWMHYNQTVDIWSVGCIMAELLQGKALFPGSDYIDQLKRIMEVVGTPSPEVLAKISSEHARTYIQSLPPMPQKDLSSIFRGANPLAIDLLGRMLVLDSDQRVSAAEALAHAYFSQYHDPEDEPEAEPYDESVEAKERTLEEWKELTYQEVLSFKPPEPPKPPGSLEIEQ

CCNc1cc(-c2ccc(NC(=O)Nc3cccc(Cl)c3)cc2C(F)(F)F)ccn1
Activity [1]: 95% | IC50 (BT-483 [2]): 13.3 µM | Activity [3]: 66% | Activity [4]: 62% | Activity [5]: 93% | Activity [6]: 96% | Activity [7]: 95% | Activity [8]: 81% | Activity [9]: 83% | Activity [10]: 64% | Activity (BT-483 [11]): 78.2% | Activity [12]: 85% | Activity [13]: 69% | Activity (BT-483 [14]): Active | Activity (BT-483 [15]): Active | Activity [16]: 87% | Activity [17]: 76% | Activity [18]: 78% | Activity [19]: 93% | Activity (BT-483 [20]): Non-Toxic | Activity [21]: 64% | Activity [22]: 60%
